Experimental data as given in patent publication US11034672B1, “Tyrosine kinase inhibitor compositions, methods of making and methods of use” (Black Diamond Therapeutics, Inc., priority 2018, dated 2021).

What was measured:
Format in all cases: cell-based
[1] = target: T1, EGFR WT (Homo sapiens, UniProt P00533); test: BaF3 cell proliferation assay, EGFR WT (Table A); details: potency code, 3 days, CellTiterGlo, read-out: EGFR WT (Activity for Inhibiting EGFR)
Description: (§1) Retroviral Production: EGFR mutants were subcloned into pMXs-IRES-Blasticidin (RTV-016, Cell Biolabs, San Diego, Calif.). Retroviral expression vector retrovirus was produced by transient transfection of HEK 293T cells with the retroviral EGFR mutant expression vector pMXs-IRES-Blasticidin (RTV-016, Cell Biolabs), pCMV-Gag-Pol vector and pCMV-VSV-G-Envelope vector. Briefly, HEK 293T/17 cells were plated in 100 mm collagen coated plate (354450, Corning Life Sciences, Tewksbury, Mass.) (4×10^5 per plate) and incubated overnight. The next day, retroviral plasmids (3 μg of EGFR mutant, 1.0 μg of pCMV-Gag-Pol and 0.5 μg pCMV-VSV-G) were mixed in 500 μl of Optimem (31985, Life Technologies). The mixture was incubated at room temperature for 5 min and then added to Optimem containing transfection reagent Lipofectamine (11668, Invitrogen) and incubated for 20 minutes. Mixture was then added dropwise to HEK 293T cells. The next day the medium was replaced with fresh culture medium and retrovirus was harvested @ 24 and 48 hrs.
(§2) Generation of EGFR mutant stable cell lines: BaF3 cells (1.5E5 cells) were infected with 1 ml of viral supernatant supplemented with 8 μg/ml polybrene by centrifuging for 30 min at 1000 rpm. Cells were placed in a 37° C. incubator overnight. Cells were then spun for 5 minutes to pellet the cells. Supernatant was removed and cells re-infected a fresh 1 ml of viral supernatant supplemented with 8 μg/ml polybrene by centrifuging for 30 min at 1000 rpm. Cells were placed in 37° C. incubator overnight. […] After 48 hours cells were selected for retroviral infection in 10 μg/ml Blasticidin for one week. Blasticidin resistant populations were washed twice in phosphate buffered saline before plating in media lacking IL-3 to select for IL-3 independent growth.
(§3) EC50 values were determined with the same application.

[2] = target: T1, EGFR WT; test: Activity for inhibiting EGFR (Table A), EGFR WT; details: read-out: EGFR WT, potency code (IC50)
[3] = target: T2, EGFR V3 (Homo sapiens, UniProt P00533, DELINS30-297G); test: Activity for inhibiting EGFR (Table A), EGFR V3 (EGFR-Viii); details: read-out: EGFR V3, potency code (IC50)
T2 construct: expressed in transfected cells; host or cells: BaF3 (murine pro-B), retroviral pMXs-IRES-Blasticidin
T2 sequence (P00533 with tags, fused parts or gaps DELINS30-297G): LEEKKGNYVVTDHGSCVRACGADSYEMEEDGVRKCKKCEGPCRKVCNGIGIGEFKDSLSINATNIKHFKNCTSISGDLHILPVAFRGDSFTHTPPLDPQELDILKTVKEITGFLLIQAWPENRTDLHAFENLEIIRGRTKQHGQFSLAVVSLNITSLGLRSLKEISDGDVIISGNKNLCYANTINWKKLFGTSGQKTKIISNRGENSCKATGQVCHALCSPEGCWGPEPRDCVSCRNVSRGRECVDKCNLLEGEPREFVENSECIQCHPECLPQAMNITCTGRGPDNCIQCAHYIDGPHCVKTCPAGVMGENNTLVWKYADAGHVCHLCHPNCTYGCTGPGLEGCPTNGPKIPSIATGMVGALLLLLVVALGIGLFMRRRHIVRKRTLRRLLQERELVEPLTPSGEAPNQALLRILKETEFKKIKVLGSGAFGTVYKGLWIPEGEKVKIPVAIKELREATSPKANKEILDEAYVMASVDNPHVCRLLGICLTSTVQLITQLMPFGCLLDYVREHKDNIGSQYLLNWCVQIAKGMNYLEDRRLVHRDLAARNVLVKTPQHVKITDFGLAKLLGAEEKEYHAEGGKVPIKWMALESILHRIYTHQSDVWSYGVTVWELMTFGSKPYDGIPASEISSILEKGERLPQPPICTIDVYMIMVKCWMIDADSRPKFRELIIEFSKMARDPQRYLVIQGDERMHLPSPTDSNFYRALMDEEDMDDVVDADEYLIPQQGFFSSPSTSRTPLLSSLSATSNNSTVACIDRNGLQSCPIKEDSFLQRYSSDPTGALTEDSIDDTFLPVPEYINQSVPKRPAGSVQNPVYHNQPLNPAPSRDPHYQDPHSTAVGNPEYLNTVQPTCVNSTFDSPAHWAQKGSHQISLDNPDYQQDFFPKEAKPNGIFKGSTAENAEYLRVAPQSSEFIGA

[4] = target: T3, HER2 YVMA (Homo sapiens, UniProt P04626, INS775YVMA); test: BaF3 cell proliferation assay, HER2 YVMA (Table B); details: potency code, 3 days, CellTiterGlo, read-out: HER2 YVMA (Activity for Inhibiting HER2)
T3 construct: expressed in transfected cells; host or cells: BaF3 (murine pro-B)
T3 sequence (P04626 with tags, fused parts or gaps INS775YVMA): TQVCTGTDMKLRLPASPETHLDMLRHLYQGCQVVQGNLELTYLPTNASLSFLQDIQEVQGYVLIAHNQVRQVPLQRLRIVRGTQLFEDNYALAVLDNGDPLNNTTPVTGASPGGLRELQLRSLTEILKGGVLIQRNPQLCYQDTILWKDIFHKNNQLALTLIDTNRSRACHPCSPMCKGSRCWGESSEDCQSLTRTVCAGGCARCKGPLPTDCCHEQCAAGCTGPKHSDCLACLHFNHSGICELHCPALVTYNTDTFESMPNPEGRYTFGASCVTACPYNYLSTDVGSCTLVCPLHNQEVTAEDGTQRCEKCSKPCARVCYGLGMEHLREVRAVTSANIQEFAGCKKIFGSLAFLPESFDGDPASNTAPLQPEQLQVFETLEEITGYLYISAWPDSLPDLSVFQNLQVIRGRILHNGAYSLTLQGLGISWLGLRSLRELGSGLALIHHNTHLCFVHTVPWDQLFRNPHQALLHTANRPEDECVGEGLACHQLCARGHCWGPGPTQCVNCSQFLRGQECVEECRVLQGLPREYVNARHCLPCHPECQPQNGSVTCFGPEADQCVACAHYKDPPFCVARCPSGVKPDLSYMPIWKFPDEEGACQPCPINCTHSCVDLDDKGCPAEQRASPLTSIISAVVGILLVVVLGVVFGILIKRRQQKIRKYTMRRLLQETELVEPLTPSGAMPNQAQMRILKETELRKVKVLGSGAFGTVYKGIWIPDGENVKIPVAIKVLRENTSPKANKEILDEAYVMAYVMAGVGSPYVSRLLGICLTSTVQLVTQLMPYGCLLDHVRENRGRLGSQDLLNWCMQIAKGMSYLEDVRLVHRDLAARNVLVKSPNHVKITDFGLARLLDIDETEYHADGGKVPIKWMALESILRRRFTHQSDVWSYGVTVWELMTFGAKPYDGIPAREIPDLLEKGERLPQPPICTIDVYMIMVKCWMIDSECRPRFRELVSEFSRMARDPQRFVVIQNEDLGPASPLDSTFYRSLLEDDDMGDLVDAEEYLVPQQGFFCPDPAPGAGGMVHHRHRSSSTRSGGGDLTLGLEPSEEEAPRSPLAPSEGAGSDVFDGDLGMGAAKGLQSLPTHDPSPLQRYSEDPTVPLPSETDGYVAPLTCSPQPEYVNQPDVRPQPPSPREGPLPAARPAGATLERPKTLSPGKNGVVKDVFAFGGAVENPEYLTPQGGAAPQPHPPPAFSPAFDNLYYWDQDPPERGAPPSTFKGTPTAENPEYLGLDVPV

[5] = target: T4, HER2 S310F (Homo sapiens, UniProt P04626, S310F); test: Activity for inhibiting HER2 (Table B), HER2 S310F; details: read-out: HER2 S310F, potency code (IC50)
T4 construct: expressed in transfected cells; host or cells: BaF3 (murine pro-B)
T4 sequence (P04626 23-1255 S310F): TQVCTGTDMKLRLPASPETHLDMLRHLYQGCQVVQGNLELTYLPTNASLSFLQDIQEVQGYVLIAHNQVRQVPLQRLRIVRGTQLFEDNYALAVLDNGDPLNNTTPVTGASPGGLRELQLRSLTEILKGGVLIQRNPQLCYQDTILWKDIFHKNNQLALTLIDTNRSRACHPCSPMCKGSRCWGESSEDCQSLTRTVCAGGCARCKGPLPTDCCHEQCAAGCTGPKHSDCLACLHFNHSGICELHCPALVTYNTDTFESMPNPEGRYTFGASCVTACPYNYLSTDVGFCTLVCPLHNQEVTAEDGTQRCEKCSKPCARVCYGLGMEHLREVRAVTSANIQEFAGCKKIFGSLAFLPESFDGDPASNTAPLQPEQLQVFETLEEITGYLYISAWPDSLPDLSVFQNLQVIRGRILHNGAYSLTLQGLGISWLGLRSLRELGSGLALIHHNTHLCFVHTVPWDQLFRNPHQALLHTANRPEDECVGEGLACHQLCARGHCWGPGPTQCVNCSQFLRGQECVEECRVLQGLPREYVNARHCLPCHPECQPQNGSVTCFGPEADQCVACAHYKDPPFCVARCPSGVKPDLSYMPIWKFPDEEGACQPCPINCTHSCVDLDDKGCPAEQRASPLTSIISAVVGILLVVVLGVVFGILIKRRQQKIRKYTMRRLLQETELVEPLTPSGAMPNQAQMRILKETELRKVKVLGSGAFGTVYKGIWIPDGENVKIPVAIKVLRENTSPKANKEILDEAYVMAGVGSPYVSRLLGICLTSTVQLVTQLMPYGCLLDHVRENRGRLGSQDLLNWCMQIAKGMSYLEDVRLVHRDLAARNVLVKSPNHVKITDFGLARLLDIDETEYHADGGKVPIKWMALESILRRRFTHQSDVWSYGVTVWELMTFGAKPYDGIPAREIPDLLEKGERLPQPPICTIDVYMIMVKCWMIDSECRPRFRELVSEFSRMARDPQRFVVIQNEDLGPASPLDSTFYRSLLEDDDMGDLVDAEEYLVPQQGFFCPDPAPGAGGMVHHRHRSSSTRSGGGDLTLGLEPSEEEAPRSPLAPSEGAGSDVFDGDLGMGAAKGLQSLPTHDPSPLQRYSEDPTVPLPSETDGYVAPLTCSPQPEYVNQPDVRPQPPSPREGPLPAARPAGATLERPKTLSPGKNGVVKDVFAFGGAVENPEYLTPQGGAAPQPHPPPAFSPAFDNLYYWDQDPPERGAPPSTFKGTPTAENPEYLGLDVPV
Description: as §3

[6] = target: T3, HER2 YVMA; test: Activity for inhibiting HER2 (Table B), HER2 YVMA; details: read-out: HER2 YVMA, potency code (IC50)
Description: as §3

[7] = target: T4, HER2 S310F; test: BaF3 cell proliferation assay, HER2 S310F (Table B); details: potency code, 3 days, CellTiterGlo, read-out: HER2 S310F (Activity for Inhibiting HER2)
[8] = target: T2, EGFR V3; test: BaF3 cell proliferation assay, EGFR V3 (Table A); details: potency code, 3 days, CellTiterGlo, read-out: EGFR V3 (Activity for Inhibiting EGFR)
Description: as §1, §2, §3

T1 sequence (P00533 25-1210 N540K): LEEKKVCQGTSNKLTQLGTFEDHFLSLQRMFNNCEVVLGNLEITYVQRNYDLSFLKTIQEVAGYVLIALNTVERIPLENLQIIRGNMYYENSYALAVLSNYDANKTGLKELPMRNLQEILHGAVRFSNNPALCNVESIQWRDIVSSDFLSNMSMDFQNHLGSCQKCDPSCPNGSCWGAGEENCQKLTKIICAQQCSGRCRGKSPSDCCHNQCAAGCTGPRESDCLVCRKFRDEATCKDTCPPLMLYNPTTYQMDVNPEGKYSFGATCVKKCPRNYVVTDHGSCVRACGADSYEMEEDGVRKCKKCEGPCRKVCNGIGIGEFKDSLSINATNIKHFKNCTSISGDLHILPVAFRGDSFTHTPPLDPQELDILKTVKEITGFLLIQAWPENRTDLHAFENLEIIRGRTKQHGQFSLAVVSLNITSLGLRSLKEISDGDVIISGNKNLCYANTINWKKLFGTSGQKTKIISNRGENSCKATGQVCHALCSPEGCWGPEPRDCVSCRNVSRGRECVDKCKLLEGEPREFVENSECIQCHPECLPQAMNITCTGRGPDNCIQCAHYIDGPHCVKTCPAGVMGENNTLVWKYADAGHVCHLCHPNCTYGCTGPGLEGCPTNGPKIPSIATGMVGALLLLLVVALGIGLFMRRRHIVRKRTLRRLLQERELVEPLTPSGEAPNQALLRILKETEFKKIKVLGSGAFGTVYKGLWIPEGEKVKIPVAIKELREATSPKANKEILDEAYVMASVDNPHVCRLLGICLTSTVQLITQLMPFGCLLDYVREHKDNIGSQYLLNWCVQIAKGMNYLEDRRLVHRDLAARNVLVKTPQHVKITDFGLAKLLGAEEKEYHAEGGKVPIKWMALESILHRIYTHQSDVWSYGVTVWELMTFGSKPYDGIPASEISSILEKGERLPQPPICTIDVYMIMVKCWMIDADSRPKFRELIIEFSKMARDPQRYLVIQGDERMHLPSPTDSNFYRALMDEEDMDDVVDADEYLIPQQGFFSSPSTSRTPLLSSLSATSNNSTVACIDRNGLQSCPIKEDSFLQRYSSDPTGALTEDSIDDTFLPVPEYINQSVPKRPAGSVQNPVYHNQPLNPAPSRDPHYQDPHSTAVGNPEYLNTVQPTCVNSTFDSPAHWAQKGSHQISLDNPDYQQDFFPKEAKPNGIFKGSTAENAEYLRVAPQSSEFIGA

Row | Compound | IC50 [1] [nM] | IC50 [2] [nM] | IC50 [3] [nM] | IC50 [4] [nM] | IC50 [5] [nM] | IC50 [6] [nM] | IC50 [7] [nM] | IC50 [8] [nM]
1 | C=CC(=O)Nc1cc2c(Nc3ccc(OCc4cccc(OC(F)(F)F)n4)c(Cl)c3)ncnc2cc1OCCN1CCOCC1 [compound 24] | > 1000 | > 1000 | 200 to 300 | 300 to 500 | 200 to 300 | 300 to 500 | 200 to 300 | 200 to 300
2 | C=CC(=O)Nc1cc2c(Nc3ccc(OCc4ccccn4)c(Cl)c3)ncnc2cc1N1CC2(CCN2C)C1 [compound 50] | > 1000 | > 1000 | 30 to 50 | > 1000 | 200 to 300 | > 1000 | 200 to 300 | 30 to 50
3 | C=CC(=O)Nc1cc2c(Nc3ccc(OCc4ccccn4)c(Cl)c3)ncnc2cc1OCCN(C)C1CC1 [compound 53] | > 1000 | > 1000 | 30 to 50 | 100 to 200 | 30 to 50 | 100 to 200 | 30 to 50 | 30 to 50
4 | C=CC(=O)Nc1cc2c(Nc3ccc(OCc4ccccn4)c(Cl)c3)ncnc2cc1OCC1(N)CC1 [compound 55] | > 1000 | > 1000 | 50 to 100 | 200 to 300 | 50 to 100 | 200 to 300 | 50 to 100 | 50 to 100
5 | C=CC(=O)Nc1cc2c(Nc3ccc(OCc4ccccn4)c(Cl)c3)ncnc2cc1N1CCC(N(C)C)C1 (stereo not drawn) [compound 64] | > 1000 | > 1000 | 100 to 200 | > 1000 | 300 to 500 | > 1000 | 300 to 500 | 100 to 200
6 | C=CC(=O)Nc1cc2c(Nc3ccc(OCc4ccccn4)nc3)ncnc2cc1O[C@@H]1CCN(C)C1 [compound 72] | > 1000 | > 1000 | 300 to 500 | > 1000 | 300 to 500 | > 1000 | 300 to 500 | 300 to 500
7 | C=CC(=O)Nc1cc2c(Nc3ccc(Oc4ccc(C)nc4)c(C)c3)ncnc2cc1OCCN1CCOCC1 [compound 73] | 500 to 1000 | 500 to 1000 | 50 to 100 | 300 to 500 | 30 to 50 | 300 to 500 | 30 to 50 | 50 to 100
8 | C=CC(=O)Nc1cc2c(Nc3ccc(OCc4ccccn4)c(Cl)c3)ncnc2cc1OCCN1CC2CN(C)CC2C1 (stereo not drawn) [compound 77] | 100 to 200 | 100 to 200 | 50 to 100 | 100 to 200 | 20 to 30 | 100 to 200 | 20 to 30 | 50 to 100
9 | C=CC(=O)Nc1cc2c(Nc3ccc(OCc4ccccn4)cc3)ncnc2cc1OCC1COCCN1 (stereo not drawn) [compound 79] | 300 to 500 | 300 to 500 | 50 to 100 | > 1000 | 100 to 200 | > 1000 | 100 to 200 | 50 to 100
10 | C=CC(=O)Nc1cc2c(Nc3ccc(Oc4ccc(C)nc4)c(C)c3)ncnc2cc1C#CC(C)(C)N(C)C [compound 82] | 500 to 1000 | 500 to 1000 | 300 to 500 | 500 to 1000 | 50 to 100 | 500 to 1000 | 50 to 100 | 300 to 500
11 | C=CC(=O)Nc1cc2c(Nc3ccc(OCc4ccccn4)c(Cl)c3)ncnc2cc1C#C[C@H]1CCNC1 [compound 86, N-(4-((3-chloro-4-(pyridin-2-ylmethoxy)phenyl)amino)-7-(pyrrolidin-3-ylethynyl)quinazolin-6-yl)acrylamide] | 500 to 1000 | 500 to 1000 | 100 to 200 | 100 to 200 | 20 to 30 | 100 to 200 | 20 to 30 | 100 to 200

More lines, now with the values ahead:

Row | IC50 [1] [nM] | IC50 [2] [nM] | IC50 [3] [nM] | IC50 [4] [nM] | IC50 [5] [nM] | IC50 [6] [nM] | IC50 [7] [nM] | IC50 [8] [nM] | Compound
12 | 500 to 1000 | 500 to 1000 | 200 to 300 | > 1000 | 300 to 500 | > 1000 | 300 to 500 | 200 to 300 | C=CC(=O)Nc1cc2c(Nc3ccc(OCc4ccccn4)c(Cl)c3)ncnc2cc1N1CC2(CN(C)C2)C1 [compound 45]
13 | > 1000 | > 1000 | 300 to 500 | > 1000 | 300 to 500 | > 1000 | 300 to 500 | 300 to 500 | C=CC(=O)Nc1cc2c(Nc3ccc(OCc4ccccn4)cn3)ncnc2cc1OC1CCN(C)C1 (stereo not drawn) [compound 61]
14 | 500 to 1000 | 500 to 1000 | 50 to 100 | > 1000 | 200 to 300 | > 1000 | 200 to 300 | 50 to 100 | C=CC(=O)Nc1cc2c(Nc3ccc(OCc4ccccn4)nc3)ncnc2cc1OCCN1CCOCC1 [compound 71]
15 | > 1000 | > 1000 | 100 to 200 | 300 to 500 | 100 to 200 | 300 to 500 | 100 to 200 | 100 to 200 | C=CC(=O)Nc1cc2c(Nc3ccc(Oc4cccnc4)cc3)ncnc2cc1OCCN1CCOCC1 [compound 75]
16 | 200 to 300 | 200 to 300 | 50 to 100 | 100 to 200 | 30 to 50 | 100 to 200 | 30 to 50 | 50 to 100 | C=CC(=O)Nc1cc2c(Nc3ccc(OCc4ccccn4)c(Cl)c3)ncnc2cc1OCCN1CCC(N(C)C)CC1 [compound 76]
17 | 100 to 200 | 100 to 200 | 50 to 100 | 500 to 1000 | 50 to 100 | 500 to 1000 | 50 to 100 | 50 to 100 | C=CC(=O)Nc1cc2c(Nc3ccc(OCc4ccccn4)cc3)ncnc2cc1OCCN1CCC(N(C)C)CC1 [compound 80]
18 | 500 to 1000 | 500 to 1000 | 50 to 100 | 100 to 200 | 10 to 20 | 100 to 200 | 10 to 20 | 50 to 100 | C=CC(=O)Nc1cc2c(Nc3ccc(OCc4ccccn4)c(Cl)c3)ncnc2cc1C#CC1CCCN1 (stereo not drawn) [compound 83, N-(4-((3-chloro-4-(pyridin-2-ylmethoxy)phenyl)amino)-7-(pyrrolidin-2-ylethynyl)quinazolin-6-yl)acrylamide]
19 | > 1000 | > 1000 | 100 to 200 | 200 to 300 | 30 to 50 | 200 to 300 | 30 to 50 | 100 to 200 | C=CC(=O)Nc1cc2c(Nc3ccc(OCc4ccccn4)c(Cl)c3)ncnc2cc1C#C[C@@H]1CCCN1C [compound 87, N-(4-((3-chloro-4-(pyridin-2-ylmethoxy)phenyl)amino)-7-((1-methylpyrrolidin-2-yl)ethynyl)quinazolin-6-yl)acrylamide]
20 | 500 to 1000 | 500 to 1000 | 30 to 50 | 100 to 200 | 10 to 20 | 100 to 200 | 10 to 20 | 30 to 50 | C=CC(=O)Nc1cc2c(Nc3ccc(OCc4ccccn4)c(Cl)c3)ncnc2cc1C#CC(C)(C)NC [compound 88, N-(4-((3-chloro-4-(pyridin-2-ylmethoxy)phenyl)amino)-7-(3-methyl-3-(methylamino)but-1-yn-1-yl)quinazolin-6-yl)acrylamide]
21 | 50 to 100 | 50 to 100 | 30 to 50 | 50 to 100 | 10 to 20 | 50 to 100 | 10 to 20 | 30 to 50 | CC#CC(=O)Nc1cc2c(Nc3ccc(OCc4ccccn4)c(Cl)c3)ncnc2cc1C#CC(C)(C)N1CCN(C)CC1 [compound 89, N-(4-((3-chloro-4-(pyridin-2-ylmethoxy)phenyl)amino)-7-(3-methyl-3-(4-methylpiperazin-1-yl)but-1-yn-1-yl)quinazolin-6-yl)but-2-ynamide]
